According to US20040180322A1, “Regional intestinal permeability model” (priority 2000, published 2004):
Values belong to the compound of their own block, whether it stands above or below them. Where a SMILES comes first, the peptide text is derived from it. [ ]: non-standard residue; d: D form. Sar = CNCC(=O)O

Assays:
[1] = system: Caco-2; assay: Caco-2 transepithelial transport with apical FaSSIF versus Mes (Experiment Three); format: in vitro ADME; details: for increase of A→B permeability with apical FaSSIF / increase of B→A permeability with apical FaSSIF: Caco-2, apical FaSSIF pH 6.5 compared with Mes pH 6.5
Procedure: Methods. […] Caco-2 transepithelial transport studies were performed using a standardized 24-well transwell format (20-24 day culture/passage 30-40). The transport experiments were performed using 0.3 mL apical solution either Ringers (pH 7.4), Mes (pH 6.5), or FaSSIF (pH 6.5, calcium free) and 1.2 mL basolateral solution (Ringer's buffer: pH 7.4, 290 mOsm/kg, 25 mM glucose). […] and B→A permeability was studied at 37° C., 50 opm, 95% humidity, and 5% CO2 using a 100 μM donor concentration with 1% DMSO. Monolayer integrity was evaluated by TEER measurements. Rabbit regional intestinal permeability studies were conducted using the Ussing side-by-side diffusion chamber, with volumes of 1.5 mL on each side. Intestinal segments (duodenum/jejunum/ileum/descending colon) were harvested from male New Zealand white rabbits (2.5-3.0 kg), stripped of the muscle layers and mounted in the chambers.

[2] = Caco-2 transepithelial transport at different apical pH, buffers and CO2 incubation (Experiment Two); format: in vitro ADME; details: human
Procedure: (§1) Methods. In vitro permeability of various transport marker compounds was investigated using different apical pH's (pH 7.4 and pH 6.5), different buffers (Ringers, Mes, and Hepes), and different incubation (with or without CO2) conditions. Caco-2 transepithelial transport studies were performed using a standardized 24-well transwell format (20-24 day culture/passage 30-40). The apical (A, 0.3 mL volume) and basolateral (B, 1.2 mL volume) reservoirs were filled with Ringer's buffer (pH 7.4, 290 mOsm/kg), containing 25 mM glucose. A→B and B→A permeability was studied at 37° C., 50 opm, 95% humidity, and 5% CO2 using a 100 μM donor concentration with 1% DMSO. Monolayer integrity was evaluated by transepithelial electrical resistance (TEER) measurements.

[3] = system: Caco-2; assay: as above; format: in vitro ADME; details: for increase of A to B Effective Permeability (Peff) on change of apical pH from 7.4 to 6.5 / decrease of A to B Effective Permeability (Peff) on change of apical pH from 7.4 to 6.5: Caco-2, apical pH 6.5 vs 7.4; for decrease of A to B Peff in the absence of CO2: Caco-2, pH 7.4 Ringers without CO2, pH shifted to 7.8-8.0
Procedure: as §1

[4] = system: Caco-2; details: cited from earlier work; for range of in vitro permeability values in inter-laboratory Caco-2: values from 10 references with various culture and transport conditions
[5] = Caco-2 monolayer A to B permeability of marker compounds, standardized conditions (Experiment One); details: human, Caco-2, pH 7.4
[6] = system: Caco-2; assay: Inter-laboratory Caco-2 permeability values of marker compounds collected from references; format: in vitro ADME; details: for variability of in vitro permeability values in inter-laboratory Caco-2: values from 10 references with various culture and transport conditions

Compound: Nc1nc2c(ncn2COCCO)c(=O)[nH]1 [acyclovir]
- increase of A→B permeability with apical FaSSIF [1]: 3 fold

Compound: COc1cc([C@@H]2c3cc4c(cc3[C@@H](O[C@@H]3O[C@@H]5CO[C@@H](C)O[C@H]5[C@H](O)[C@H]3O)[C@H]3COC(=O)[C@H]23)OCO4)cc(OC)c1O [etoposide]
- increase of A→B permeability with apical FaSSIF [1]: 2 fold
- efflux ratio at 90 min, 100 μM ([2]; Caco-2, apical pH 6.5): 12
- efflux ratio at 90 min, 100 μM ([2]; Caco-2, apical pH 7.4): 8

Compound: CN(CC(=O)O)C(=O)CN [glycylsarcosine] (H-Gly-[Sar]-OH)
- decrease of A→B permeability with apical FaSSIF ([1]; Caco-2, FaSSIF in apical compartment): 2 fold
- increase of A to B Effective Permeability (Peff) on change of apical pH from 7.4 to 6.5 [3]: 6 ×
- decrease of A to B Peff in the absence of CO2 [3]: 2 ×

Compound: CC(C)Cc1ccc(C(C)C(=O)O)cc1 (stereo not drawn) [ibuprofen]
- increase of A to B Effective Permeability (Peff) on change of apical pH from 7.4 to 6.5 [3]: 3 ×

Compound: CC(C(=O)O)c1cccc(C(=O)c2ccccc2)c1 (stereo not drawn) [ketoprofen]
- decrease of A to B Peff in the absence of CO2 [3]: 2 ×

Compound: Polyethylene Glycol [PEG 4000]
- increase of A→B permeability with apical FaSSIF [1]: 2 fold
- increase of B→A permeability with apical FaSSIF [1]: 2 fold

More lines, main results first:

- increase of A→B permeability with apical FaSSIF [1]: 3 fold
- increase of B→A permeability with apical FaSSIF [1]: 11 fold
- Papp A→B at 90 min, 100 μM [5]: 0.461 ×10⁻⁶ cm/s
- variability of in vitro Apparent Permeability (Papp) values from published references ([6]; published references): 345 fold
- variability of in vitro permeability values in inter-laboratory Caco-2 [6]: 9 fold
Compound: OC[C@@H](O)[C@@H](O)[C@H](O)[C@H](O)CO [mannitol]
- range of in vitro Apparent Permeability (Papp) values from published references ([4]; published references): 0.019-6.55 ×10^−6 cm/s
- range of in vitro permeability values in inter-laboratory Caco-2 [4]: 0.38-3.23 ×10^−6 cm/s

- decrease of A to B Effective Permeability (Peff) on change of apical pH from 7.4 to 6.5 [3]: 3 ×
- efflux ratio at 90 min, 100 μM ([2]; Caco-2, apical pH 6.5): > 4
- Papp A→B at 90 min, 100 μM [5]: 28.7 ×10⁻⁶ cm/s
- variability of in vitro permeability values in inter-laboratory Caco-2 [6]: 7 fold
Compound: CC(C)NCC(O)COc1cccc2ccccc12 (stereo not drawn) [propranolol]
- range of in vitro permeability values in inter-laboratory Caco-2 [4]: 14.8-110 ×10^−6 cm/s

- increase of A→B permeability with apical FaSSIF [1]: 5 fold
Compound: NC(=O)c1ncn([C@@H]2O[C@H](CO)[C@@H](O)[C@H]2O)n1 [ribavirin]

- decrease of A to B Effective Permeability (Peff) on change of apical pH from 7.4 to 6.5 [3]: 5 ×
- efflux ratio at 90 min, 100 μM ([2]; Caco-2, apical pH 6.5): 32
- efflux ratio at 90 min, 100 μM ([2]; Caco-2, apical pH 7.4): 4
Compound: CC[C@]1(O)C[C@@H]2CN(CCc3c([nH]c4ccccc34)[C@@](C(=O)OC)(c3cc4c(cc3OC)N(C)[C@H]3[C@@](O)(C(=O)OC)[C@H](OC(C)=O)[C@]5(CC)C=CCN6CC[C@]43[C@@H]65)C2)C1 [vinblastine]
